Experimental data as given in patent publication US8124964B2, “Field-effect transistor” (Nippon Kayaku Kabushiki Kaisha, priority 2006, dated 2012).

How the values were obtained:
[1] = Solubility Test 1: solubility to toluene; type: physicochemical; conditions: for Solubility (% by mass): to toluene, room temperature, visually checked
Description: To confirm solubility to solvent, which is one of the important characteristics of a semiconductor manufactured by coating, the solubility of a test compound to toluene was measured. A test compound was added to toluene little by little at room temperature and stirred. The solubility was determined by visually checking whether it was dissolved or not. When the test compound remained undissolved, the total amount by mass of the test compound added immediately before the moment was calculated and the solubility to toluene was expressed in terms of % by mass.
The “Compound No.” of Table 2 is the same as defined in Table 1. Furthermore, in Comparative Example 1, the solubility of Compound 16 of Example 15 disclosed in Patent Document 3 to toluene was calculated by the same test method as above. The structural formula of the compound used in Comparative Example 1 is shown in the formula (101) below.

[2] = Solubility Test 2: solubility to chloroform; type: physicochemical; conditions: room temperature, visually checked
Description: To confirm solubility to solvent, the solubility of a test compound to chloroform was measured. A test compound was added to chloroform little by little at room temperature and stirred. The solubility was determined by visually checking whether it was dissolved or not. When the test compound remained undissolved, the total amount by mass of the test compound added immediately before the moment was calculated and the solubility to chloroform was expressed in terms of % by mass.
After a chloroform suspension solution of the compound represented by the formula (101) above was prepared, insoluble solid substances were filtered off to obtain a filtrate. The solubility of the compound represented by the formula (101) above to the filtrate was 0.02% by mass.

Row | Compound | Solubility (% by mass) [1] | Solubility (% by mass) ([1]; listed as formula (101)) | Solubility (% by mass) [2] [% by mass] | solubility to toluene relative to the aryl derivative of Comparative Example 1 [1]
1 | c1ccc(-c2ccc3c(c2)sc2c4ccc(-c5ccccc5)cc4sc32)cc1 [Comparative Example 1, reference compound] | 0.01 or less % by mass | not more than 0.01 % by mass | 0.02 | –
2 | CCCCCCCCc1ccc2c(c1)sc1c3ccc(CCCCCCCC)cc3sc21 [Compound No. 16, 2,7-Dioctyl[1]benzothieno[3,2-b][1]benzothiophene] | 1.5 % by mass | – | 5.4 | at least 50 fold
3 | CCCCCCCCCCCCc1ccc2c(c1)sc1c3ccc(CCCCCCCCCCCC)cc3sc21 [Compound No. 20, 2,7-Didodecyl[1]benzothieno[3,2-b][1]benzothiophene] | 0.2 % by mass | – | 0.6 | ≥ 20 fold
